Drawing on ChEMBL document CHEMBL1140365, “Investigation of glycine alpha-ketoamide HCV NS3 protease inhibitors: effect of carboxylic acid isosteres” (Bioorg Med Chem Lett, 2005), this text covers IC50 for 24 compounds.

*1 amine or outer side, *2 acyl side, *3 side chain or, on linkers, in order; H or OH if unused. Where a SMILES comes first, the peptide text is derived from it. [ ]: non-standard residue; d: D form. The star is where a group is joined. Abu(ψCOCO) = CC[C@H](N[*:1])C(=O)C(=O)[*:2]; X1 = O=C(C(=O)[*:2])[C@H](CC(F)F)N[*:1]; Pyrazinecarbonyl = O=C(c1cnccn1)*; Cha = N[C@@H](CC1CCCCC1)C(=O)O

Sequence of NS3 (A3EZJ3 whole entry): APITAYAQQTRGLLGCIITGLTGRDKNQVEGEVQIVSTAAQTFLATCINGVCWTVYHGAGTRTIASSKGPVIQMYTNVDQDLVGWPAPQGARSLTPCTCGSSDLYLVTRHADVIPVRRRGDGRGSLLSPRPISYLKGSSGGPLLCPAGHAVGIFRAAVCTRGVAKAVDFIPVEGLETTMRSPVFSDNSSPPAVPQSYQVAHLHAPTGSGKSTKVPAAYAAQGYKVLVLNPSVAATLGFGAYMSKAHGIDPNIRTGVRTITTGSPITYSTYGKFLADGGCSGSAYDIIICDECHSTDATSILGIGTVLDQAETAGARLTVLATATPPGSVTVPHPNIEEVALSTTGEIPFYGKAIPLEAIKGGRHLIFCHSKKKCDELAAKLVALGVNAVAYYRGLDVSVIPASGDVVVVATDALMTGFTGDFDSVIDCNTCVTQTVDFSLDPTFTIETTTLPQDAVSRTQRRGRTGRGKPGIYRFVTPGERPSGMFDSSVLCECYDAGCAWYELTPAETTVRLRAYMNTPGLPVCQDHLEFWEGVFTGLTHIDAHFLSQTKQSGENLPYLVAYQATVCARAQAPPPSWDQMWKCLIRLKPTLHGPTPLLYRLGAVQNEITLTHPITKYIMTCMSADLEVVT

This test addresses NS3 (Hepatitis C virus, UniProt A3EZJ3). Nature of the test: Inhibitory concentration against glycine alpha-ketoamide HCV NS3 protease. The arrangement: species or system Hepacivirus hominis.
Consider `CC[C@H](C)[C@H](NC(=O)[C@H](CC(C)C)NC(=O)c1cnccn1)C(=O)N[C@@H](CC1CCCCC1)C(=O)N[C@@H](CC(F)F)C(=O)C(=O)NCc1nn[nH]n1`, for which the IC50 was 40 nM. `CC[C@H](NC(=O)[C@H](CC1CCCCC1)NC(=O)[C@@H](NC(=O)[C@H](CC(C)C)NC(=O)c1cnccn1)[C@@H](C)CC)C(=O)C(=O)NCS(=O)(=O)O` showed an IC50 of 220 nM. The figure for `CC[C@H](NC(=O)[C@H](CC1CCCCC1)NC(=O)[C@@H](NC(=O)[C@H](CC(C)C)NC(=O)c1cnccn1)[C@@H](C)CC)C(=O)C(=O)NCc1nn[nH]n1` is 460 nM. Under `CC[C@H](NC(=O)[C@H](CC1CCCCC1)NC(=O)[C@@H](NC(=O)[C@H](CC(C)C)NC(=O)c1cnccn1)[C@@H](C)CC)C(=O)C(=O)NCC(=O)NS(=O)(=O)c1cccc([N+](=O)[O-])c1` stands 410 nM; under `CC[C@H](NC(=O)[C@H](CC1CCCCC1)NC(=O)[C@@H](NC(=O)[C@H](CC(C)C)NC(=O)c1cnccn1)[C@@H](C)CC)C(=O)C(=O)NCC(=O)NS(=O)(=O)c1ccc2ccccc2c1`, 1200 nM; under `CC[C@H](NC(=O)[C@H](CC1CCCCC1)NC(=O)[C@@H](NC(=O)[C@H](CC(C)C)NC(=O)c1cnccn1)[C@@H](C)CC)C(=O)C(=O)NCC(=O)NS(=O)(=O)c1cccc(Cl)c1`, 250 nM. The figure for `CC[C@H](NC(=O)[C@H](CC1CCCCC1)NC(=O)[C@@H](NC(=O)[C@H](CC(C)C)NC(=O)c1cnccn1)[C@@H](C)CC)C(=O)C(=O)NCC(=O)NS(=O)(=O)Cc1ccccc1` is 12000 nM; for `CC[C@H](NC(=O)[C@H](CC1CCCCC1)NC(=O)[C@@H](NC(=O)[C@H](CC(C)C)NC(=O)c1cnccn1)[C@@H](C)CC)C(=O)C(=O)NCC(=O)NS(=O)(=O)c1cc(Cl)cc(Cl)c1` it is 130 nM. Turning to `CC[C@H](NC(=O)[C@H](CC1CCCCC1)NC(=O)[C@@H](NC(=O)[C@H](CC(C)C)NC(=O)c1cnccn1)[C@@H](C)CC)C(=O)C(=O)NCC(=O)NS(=O)(=O)c1ccccc1`, the IC50 amounted to 8900 nM.

The compound `CC[C@H](C)[C@H](NC(=O)[C@H](CC(C)C)NC(=O)c1cnccn1)C(=O)N[C@@H](CC1CCCCC1)C(=O)N[C@@H](CC(F)F)C(=O)C(=O)NCC(=O)NS(=O)(=O)c1cccc(-c2ccccc2)c1` yielded an IC50 of 60 nM. The figure for `CC[C@H](NC(=O)[C@H](CC1CCCCC1)NC(=O)[C@@H](NC(=O)[C@H](CC(C)C)NC(=O)c1cnccn1)[C@@H](C)CC)C(=O)C(=O)NCC(=O)NS(=O)(=O)c1nnc(NC(C)=O)s1` is 250 nM; for `CCCCCC(=O)Nc1nnc(S(=O)(=O)NC(=O)CNC(=O)C(=O)[C@H](CC(F)F)NC(=O)[C@H](CC2CCCCC2)NC(=O)[C@@H](NC(=O)[C@H](CC(C)C)NC(=O)c2cnccn2)[C@@H](C)CC)s1` it is 20 nM. Under `CC[C@H](C)[C@H](NC(=O)[C@H](CC(C)C)NC(=O)c1cnccn1)C(=O)N[C@@H](CC1CCCCC1)C(=O)N[C@@H](CC(F)F)C(=O)C(=O)NCC(=O)NS(=O)(=O)c1nnc(NC(=O)c2ccc(Cl)cc2)s1` stands 20 nM.

`CC[C@H](NC(=O)[C@H](CC1CCCCC1)NC(=O)[C@@H](NC(=O)[C@H](CC(C)C)NC(=O)c1cnccn1)[C@@H](C)CC)C(=O)C(=O)NCC(=O)NS(=O)(=O)c1ccc(-c2ccccc2)cc1` yielded an IC50 of 2400 nM. Under `CC[C@H](NC(=O)[C@H](CC1CCCCC1)NC(=O)[C@@H](NC(=O)[C@H](CC(C)C)NC(=O)c1cnccn1)[C@@H](C)CC)C(=O)C(=O)NCC(=O)NS(=O)(=O)c1cc(C(=O)O)ccc1Cl` stands 110 nM; under `CC[C@H](NC(=O)[C@H](CC1CCCCC1)NC(=O)[C@@H](NC(=O)[C@H](CC(C)C)NC(=O)c1cnccn1)[C@@H](C)CC)C(=O)C(=O)NCC(=O)NS(=O)(=O)c1cccc(-c2ccccc2)c1`, 640 nM. `CC[C@H](NC(=O)[C@H](CC1CCCCC1)NC(=O)[C@@H](NC(=O)[C@H](CC(C)C)NC(=O)c1cnccn1)[C@@H](C)CC)C(=O)C(=O)NCC(=O)NS(=O)(=O)c1ccc([N+](=O)[O-])cc1` registered an IC50 of 920 nM. `CC[C@H](NC(=O)[C@H](CC1CCCCC1)NC(=O)[C@@H](NC(=O)[C@H](CC(C)C)NC(=O)c1cnccn1)[C@@H](C)CC)C(=O)C(=O)NCC(=O)NS(=O)(=O)C(F)(F)F` displayed an IC50 of 470 nM. The figure for `CC[C@H](C)[C@H](NC(=O)[C@H](CC(C)C)NC(=O)c1cnccn1)C(=O)N[C@@H](CC1CCCCC1)C(=O)N[C@@H](CC(F)F)C(=O)C(=O)NCC(=O)NS(=O)(=O)c1cc(Cl)cc(S(=O)(=O)NC(=O)c2ccccc2)c1` is 60 nM. Consider `CC[C@H](NC(=O)[C@H](CC1CCCCC1)NC(=O)[C@@H](NC(=O)[C@H](CC(C)C)NC(=O)c1cnccn1)[C@@H](C)CC)C(=O)C(=O)NCC(=O)NS(=O)(=O)c1cc(Cl)cc(S(=O)(=O)NC(=O)c2ccccc2)c1`, for which 120 nM corresponded to half-maximal inhibition (IC50).

As for `CC[C@H](C)[C@H](NC(=O)[C@H](CC(C)C)NC(=O)c1cnccn1)C(=O)N[C@@H](CC1CCCCC1)C(=O)N[C@@H](CC(F)F)C(=O)C(=O)NCC(=O)NS(=O)(=O)c1cc(Cl)cc(S(N)(=O)=O)c1`, the IC50 amounted to 50 nM. Under `CC[C@H](NC(=O)[C@H](CC1CCCCC1)NC(=O)[C@@H](NC(=O)[C@H](CC(C)C)NC(=O)c1cnccn1)[C@@H](C)CC)C(=O)C(=O)NCC(=O)NS(C)(=O)=O` stands 25000 nM; under `CC[C@H](NC(=O)[C@H](CC1CCCCC1)NC(=O)[C@@H](NC(=O)[C@H](CC(C)C)NC(=O)c1cnccn1)[C@@H](C)CC)C(=O)C(=O)NCC(=O)O` (Pyrazinecarbonyl-LI[Cha][Abu(ψCOCO)]G-OH), 230 nM; under `CC[C@H](C)[C@H](NC(=O)[C@H](CC(C)C)NC(=O)c1cnccn1)C(=O)N[C@@H](CC1CCCCC1)C(=O)N[C@@H](CC(F)F)C(=O)C(=O)NCC(=O)O` (Pyrazinecarbonyl-LI[Cha][X1]G-OH), 60 nM.
